Among the data in patent US8633207B2, “Quinazoline compounds and methods of use thereof” (Ambit Biosciences Corporation, priority 2010, dated 2014) are Kd and IC50 values, retold here.

Usually Kd stands for the constant that tells how readily two partners part at equilibrium. Higher therefore signals a looser complex. What is called IC50 is the concentration that inhibits the measured activity by half.

One assay has as its target T1, Tyk2 (Homo sapiens, UniProt P29597).
T1 construct: made in house; host or cells: T7 phage display, or HEK-293 cells (alternative)
Briefly: Competition binding assay to determine Kd against JAK kinases: Tyk2. The text has this: (§1) Competition Binding Assay to Determine Binding Constants (Kd) of the Compounds Against JAK Kinases
(§2) Competition binding assays used herein were developed, validated and performed as described in Fabian et al., Nature Biotechnology 2005, 23, 329-336. Kinases were produced as fusions to T7 phage (See, Fabian et al. or WO04/015142) or alternatively, the kinases were expressed in HEK-293 cells and subsequently tagged with DNA for PCR detection (See, WO08/005,310). For the binding assays, streptavidin-coated magnetic beads were treated with biotinylated affinity ligands for 30 min at rt to generate affinity resins. The liganded beads were blocked with excess biotin and washed with blocking buffer (SeaBlock (Pierce), 1% BSA, 0.05% Tween 20, 1 mM DTT) to remove unbound ligand and to reduce non-specific binding. Binding reactions were assembled by combining kinase, liganded affinity beads, and test compounds in 1× binding buffer (20% SeaBlock, 0.17×PBS, 0.05% Tween 20, 6 mM DTT). Test compounds were prepared as 100× stocks in DMSO and rapidly diluted into the aqueous environment. DMSO was added to control assays lacking a test compound. Primary screen interactions were performed in polypropylene 384-well plates in a final volume of 34 μL, while Kd determinations were performed in polystyrene 96-well plates in a final volume of 135 μL. The assay plates were incubated at room temperature with shaking for 1 hour, long enough for binding reactions to reach equilibrium, and the affinity beads were washed extensively with wash buffer (1×PBS, 0.05% Tween 20) to remove unbound protein. The beads were then resuspended in elution buffer (1×PBS, 0.05% Tween 20, 2 μM non-biotinylated affinity ligand) and incubated at room temperature with shaking for 30 min. The kinase concentration in the eluates was measured by quantitative PCR. Each kinase was tested individually against each compound. Kds were determined using eleven serial threefold dilutions. A selectivity score, which is a quantitative measure of selectivity of a compound against a panel of enzymes, may be calculated for a compound by dividing the number of enzymes for which a compound meets a set criteria, (for example, a binding constant of 100 nM or less), by the total number of enzymes tested.

In a further assay the target is T2, JAK3 (Homo sapiens, UniProt P52333).
T2 construct: made in house; host or cells: T7 phage display, or HEK-293 cells (alternative)
T2 sequence (P52333 1-1124): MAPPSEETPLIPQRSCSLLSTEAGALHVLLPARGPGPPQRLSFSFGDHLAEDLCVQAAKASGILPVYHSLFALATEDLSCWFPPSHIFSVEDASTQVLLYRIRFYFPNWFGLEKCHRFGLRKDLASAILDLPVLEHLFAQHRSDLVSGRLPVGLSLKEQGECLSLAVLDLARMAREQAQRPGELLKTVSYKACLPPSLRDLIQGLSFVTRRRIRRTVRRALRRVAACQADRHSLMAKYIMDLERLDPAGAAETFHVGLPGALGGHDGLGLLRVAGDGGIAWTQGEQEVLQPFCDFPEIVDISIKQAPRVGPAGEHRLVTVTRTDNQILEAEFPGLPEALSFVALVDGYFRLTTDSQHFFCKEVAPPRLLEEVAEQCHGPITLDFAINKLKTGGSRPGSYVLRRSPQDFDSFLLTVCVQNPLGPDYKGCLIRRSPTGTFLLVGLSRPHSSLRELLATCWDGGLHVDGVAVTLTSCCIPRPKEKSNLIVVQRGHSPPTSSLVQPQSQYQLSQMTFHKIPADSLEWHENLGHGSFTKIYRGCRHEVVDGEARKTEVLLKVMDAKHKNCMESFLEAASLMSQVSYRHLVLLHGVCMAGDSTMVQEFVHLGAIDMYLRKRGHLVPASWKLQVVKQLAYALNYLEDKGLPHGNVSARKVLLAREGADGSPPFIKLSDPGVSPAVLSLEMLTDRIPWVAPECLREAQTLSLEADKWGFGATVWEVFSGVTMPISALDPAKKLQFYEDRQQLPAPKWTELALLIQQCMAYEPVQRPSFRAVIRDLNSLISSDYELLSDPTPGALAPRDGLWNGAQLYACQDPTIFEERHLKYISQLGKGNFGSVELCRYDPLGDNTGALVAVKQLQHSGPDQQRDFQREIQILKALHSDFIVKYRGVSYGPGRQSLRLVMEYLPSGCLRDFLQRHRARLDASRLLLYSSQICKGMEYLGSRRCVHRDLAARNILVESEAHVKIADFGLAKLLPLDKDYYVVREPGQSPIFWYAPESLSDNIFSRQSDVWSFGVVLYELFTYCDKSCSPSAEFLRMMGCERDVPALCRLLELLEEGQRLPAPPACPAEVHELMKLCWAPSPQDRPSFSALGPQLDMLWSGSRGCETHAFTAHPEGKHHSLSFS
Briefly: Competition binding assay to determine Kd against JAK kinases: JAK3.
Excerpt: as §1, §2

The test system of assay [1] is GM-CSFR/JAK2/STAT5 pathway. Kind of assay: csTF-1 cell-based reporter assay. To be noted: Homo sapiens; csTF-1 cells, GM-CSF at 2 ng/mL, 4 hours; read-out: Cell Assay: CS TF-1 reporter assay IC50. How it is done: csTF-1 Cell-Based Reporter Assay
csTF-1 cells are derived from the human erythroleukemia cell line that is growth dependent on GM-CSF and has an intact GM-CSFR/JAK2/STAT5 pathway. The cell line contains stably integrated beta-lactamase reporter gene under the control of the […] (irf 1) response element recognized by the activated transcription factor STATS. csTF-1 cells (Invitrogen K1219) were washed with assay media (97% OPTIMEM/0.5% dialyzed FBS/0.1 mM NEAA/1 mM Na pyr/P/S) and seeded in the same media at 5×10^5 cell/mL in T150 flask. After 16 hour incubation, cells were seeded at 2×10^5 cell/well in 50 μl volume, into Costar, clear bottom, 96-well assay plates. Serial dilutions of compounds were added to the plates with final DMSO concentration at 0.5% and GM-CSF at 2 ng/mL and the plates were then incubated at […] and 5% CO2 for 4 hours. The plates were brought to room temperature before adding Substrate Mixture according to manufacturer's protocol (Invitrogen, Catalog #K1085). The assay plates containing the substrate mixture were incubated in the dark at room temperature for 2 hours. Blue and green fluorescence was measured with excitation at 409 nm and emission at 460 nm (for blue) and excitation at 409 nm and emission at 530 nm (for green) using Spectra Max Gemini EM.
(In general: In a reporter assay the amount or activity of a reporter protein is the signal.)

In the next assay the target is T3, JAK2 (Homo sapiens, UniProt O60674).
T3 construct: made in house; host or cells: T7 phage display, or HEK-293 cells (alternative)
T3 sequence (O60674 whole entry): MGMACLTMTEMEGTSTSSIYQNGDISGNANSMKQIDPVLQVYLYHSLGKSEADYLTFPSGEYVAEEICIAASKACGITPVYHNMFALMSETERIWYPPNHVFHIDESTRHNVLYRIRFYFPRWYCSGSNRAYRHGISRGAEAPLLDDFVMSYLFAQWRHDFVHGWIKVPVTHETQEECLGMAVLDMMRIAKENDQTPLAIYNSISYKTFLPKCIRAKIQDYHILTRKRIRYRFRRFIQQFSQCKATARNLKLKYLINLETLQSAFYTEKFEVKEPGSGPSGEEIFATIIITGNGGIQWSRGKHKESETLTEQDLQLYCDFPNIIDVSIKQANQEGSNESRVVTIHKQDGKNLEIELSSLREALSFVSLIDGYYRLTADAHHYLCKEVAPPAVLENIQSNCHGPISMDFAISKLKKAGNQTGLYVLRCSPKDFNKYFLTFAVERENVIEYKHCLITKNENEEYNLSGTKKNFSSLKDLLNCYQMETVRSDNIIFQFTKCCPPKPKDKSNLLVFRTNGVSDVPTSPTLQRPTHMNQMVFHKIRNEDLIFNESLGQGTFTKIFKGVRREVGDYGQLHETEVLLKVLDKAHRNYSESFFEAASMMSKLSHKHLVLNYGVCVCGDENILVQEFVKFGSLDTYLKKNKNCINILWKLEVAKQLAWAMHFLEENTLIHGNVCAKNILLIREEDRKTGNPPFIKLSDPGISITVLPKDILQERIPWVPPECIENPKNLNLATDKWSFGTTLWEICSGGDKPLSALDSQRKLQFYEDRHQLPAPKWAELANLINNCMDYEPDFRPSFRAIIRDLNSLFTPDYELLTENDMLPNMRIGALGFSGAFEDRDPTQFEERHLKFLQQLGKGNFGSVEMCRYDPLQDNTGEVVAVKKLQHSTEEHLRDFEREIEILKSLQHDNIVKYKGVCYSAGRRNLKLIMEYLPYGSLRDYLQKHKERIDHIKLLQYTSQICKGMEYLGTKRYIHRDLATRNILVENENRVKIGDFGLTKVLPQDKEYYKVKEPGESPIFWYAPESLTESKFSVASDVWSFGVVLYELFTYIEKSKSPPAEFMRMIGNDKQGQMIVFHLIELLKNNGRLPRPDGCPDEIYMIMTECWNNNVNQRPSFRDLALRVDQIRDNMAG
Kind of assay: Competition binding assay to determine Kd against JAK kinases: JAK2.
Excerpt: as §1, §2

T1 sequence (P29597 whole entry): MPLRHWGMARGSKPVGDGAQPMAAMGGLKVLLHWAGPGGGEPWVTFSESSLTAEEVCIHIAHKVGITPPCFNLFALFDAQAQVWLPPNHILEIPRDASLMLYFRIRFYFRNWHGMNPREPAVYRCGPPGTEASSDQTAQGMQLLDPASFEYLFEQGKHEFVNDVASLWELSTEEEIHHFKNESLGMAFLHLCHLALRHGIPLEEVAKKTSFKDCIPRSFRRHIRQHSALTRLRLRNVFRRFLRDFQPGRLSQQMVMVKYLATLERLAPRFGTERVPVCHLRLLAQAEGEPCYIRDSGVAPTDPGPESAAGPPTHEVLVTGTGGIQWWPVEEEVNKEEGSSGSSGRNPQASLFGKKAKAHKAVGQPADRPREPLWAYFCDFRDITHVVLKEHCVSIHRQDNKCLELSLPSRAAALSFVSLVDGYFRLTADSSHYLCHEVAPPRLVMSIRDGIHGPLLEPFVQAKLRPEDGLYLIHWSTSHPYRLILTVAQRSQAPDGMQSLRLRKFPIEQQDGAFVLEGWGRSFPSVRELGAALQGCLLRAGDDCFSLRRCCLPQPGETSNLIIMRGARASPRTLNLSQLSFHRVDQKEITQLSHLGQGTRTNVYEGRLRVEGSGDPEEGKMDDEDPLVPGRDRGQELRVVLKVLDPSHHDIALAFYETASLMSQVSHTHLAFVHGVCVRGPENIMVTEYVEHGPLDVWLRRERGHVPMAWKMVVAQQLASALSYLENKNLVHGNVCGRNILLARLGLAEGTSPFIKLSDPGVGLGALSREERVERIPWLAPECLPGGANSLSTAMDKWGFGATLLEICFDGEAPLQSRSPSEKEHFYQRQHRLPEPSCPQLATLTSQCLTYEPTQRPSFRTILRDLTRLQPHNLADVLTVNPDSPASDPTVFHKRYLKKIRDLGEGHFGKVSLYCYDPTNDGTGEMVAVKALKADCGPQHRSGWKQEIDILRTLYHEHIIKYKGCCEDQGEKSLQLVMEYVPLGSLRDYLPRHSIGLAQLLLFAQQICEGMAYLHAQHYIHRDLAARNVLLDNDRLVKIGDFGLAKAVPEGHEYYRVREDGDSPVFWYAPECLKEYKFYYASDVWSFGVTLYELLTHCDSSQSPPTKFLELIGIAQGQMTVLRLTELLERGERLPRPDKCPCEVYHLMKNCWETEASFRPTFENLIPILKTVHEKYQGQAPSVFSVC

Consider `Cc1cc(Nc2nc(C(F)(F)c3ccc(F)cn3)nc3cc(F)ccc23)n[nH]1` [Example 15, 2-(difluoro(5-fluoropyridin-2-yl)methyl)-7-fluoro-N-(5-methyl-1H-pyrazol-3-yl)quinazolin-4-amine], for which the Kd on Tyk2 was at most 10 nM; on JAK3, 10 to 100 nM; at JAK2 it was at most 1 nM. In addition, the IC50 in assay [1] is at most 100 nM.

Turning to `Cc1cc(Nc2nc(C(F)(F)c3ccc(F)cn3)nc3cc(Cl)ccc23)n[nH]1` [Example 16, 7-chloro-2-(difluoro(5-fluoropyridin-2-yl)methyl)-N-(5-methyl-1H-pyrazol-3-yl)quinazolin-4-amine], the results for the Kd on Tyk2, at JAK3 and at JAK2 were at most 10 nM, 10 to 100 nM and at most 1 nM, respectively. Also, in assay [1], the IC50 was at most 100 nM.

On to `Cc1cnc(Nc2nc(C(F)(F)c3ccc(F)cn3)nc3ccccc23)s1` [Example 30, N-(2-(difluoro(5-fluoropyridin-2-yl)methyl)quinazolin-4-yl)-5-methylthiazol-2-amine], for which the Kd at Tyk2 is 10 to 100 nM; at JAK3 it was above 100 nM; at JAK2, 1 to 10 nM. For the same compound, in assay [1], the IC50 fell in the range of 100 to 500 nM.

With `Fc1ccc(C(F)(F)c2nc(Nc3nc[nH]n3)c3ccccc3n2)nc1` [Example 31, 2-(difluoro(5-fluoropyridin-2-yl)methyl)-N-(1H-1,2,4-triazol-3-yl)quinazolin-4-amine], the Kd at Tyk2 is 10 to 100 nM; at JAK3, above 100 nM; on JAK2 it was above 10 nM. In addition, the IC50 in assay [1] is above 500 nM.

On to `Cc1cc(Nc2nc(C(F)(F)c3ccc(F)cn3)nc3c(C(F)(F)F)cccc23)n[nH]1` [Example 33, 2-(difluoro(5-fluoropyridin-2-yl)methyl)-N-(5-methyl-1H-pyrazol-3-yl)-8-(trifluoromethyl)quinazolin-4-amine], for which the Kd at Tyk2 is 10 to 100 nM; at JAK3 it was above 100 nM; at JAK2, 1 to 10 nM. The IC50 in assay [1] fell in the range of 100 to 500 nM.

Turning to `Cc1cc(Nc2nc(C(F)(F)c3ccc(F)cn3)nc3c(OC(F)(F)F)cccc23)n[nH]1` [Example 34, 2-(difluoro(5-fluoropyridin-2-yl)methyl)-N-(5-methyl-1H-pyrazol-3-yl)-8-(trifluoromethoxy)quinazolin-4-amine], the Kd at Tyk2 is at most 10 nM; at JAK3 it was 10 to 100 nM; at JAK2 it was 1 to 10 nM. Besides, the IC50 in assay [1] lay in the range of 100 to 500 nM.

Regarding `Cc1cc(Nc2nc(C(F)(F)c3ccc(F)cn3)nc3c(C#N)cccc23)n[nH]1` [Example 35, 2-(difluoro(5-fluoropyridin-2-yl)methyl)-4-((5-methyl-1H-pyrazol-3-yl)amino)quinazoline-8-carbonitrile], the figures for the equilibrium dissociation constant (Kd) on Tyk2, at JAK3 and on JAK2 were at most 10 nM, 10 to 100 nM and at most 1 nM, respectively. Besides, in assay [1], the IC50 lay in the range of 100 to 500 nM.

`CCc1cccc2c(Nc3cc(C)[nH]n3)nc(C(F)(F)c3ccc(F)cn3)nc12` [Example 36, 2-(difluoro(5-fluoropyridin-2-yl)methyl)-8-ethyl-N-(5-methyl-1H-pyrazol-3-yl)quinazolin-4-amine]: the figures for the Kd at Tyk2, on JAK3 and on JAK2 were at most 10 nM, 10 to 100 nM and at most 1 nM, respectively. Besides, the IC50 in assay [1] lay within 100 to 500 nM.

Turning to `Cc1cc(Nc2nc(C(F)(F)c3ccc(F)cn3)nc3c(S(C)(=O)=O)cccc23)n[nH]1` [Example 37, 2-(difluoro(5-fluoropyridin-2-yl)methyl)-N-(5-methyl-1H-pyrazol-3-yl)-8-(methylsulfonyl)quinazolin-4-amine], the results for the Kd at Tyk2, on JAK3 and on JAK2 were at most 10 nM, 10 to 100 nM and 1 to 10 nM, respectively. Besides, the IC50 in assay [1] is 100 to 500 nM.

As to `Cc1cc(Nc2nc(C(F)(F)c3ccc(F)cn3)nc3cc(S(C)(=O)=O)ccc23)n[nH]1` [Example 38, 2-(difluoro(5-fluoropyridin-2-yl)methyl)-N-(5-methyl-1H-pyrazol-3-yl)-7-(methylsulfonyl)quinazolin-4-amine], the Kd was at most 10 nM on Tyk2, at most 10 nM on JAK3 and at most 1 nM on JAK2. For the same compound, the IC50 in assay [1] was 100 to 500 nM.

Take `Cc1cc(Nc2nc(C(F)(F)c3ccc(F)cn3)nc3c(C(N)=O)cccc23)n[nH]1` [Example 39, 2-(difluoro(5-fluoropyridin-2-yl)methyl)-4-((5-methyl-1H-pyrazol-3-yl)amino)quinazoline-8-carboxamide]: the Kd at Tyk2 is at most 10 nM; on JAK3, at most 10 nM; on JAK2, at most 1 nM. Also, the half-inhibitory concentration (IC50) in assay [1] is at most 100 nM.

As to `Cc1cc(Nc2nc(C(F)(F)c3ncc(F)cn3)nc3c(Cl)cccc23)n[nH]1` [Example 40, 8-chloro-2-(difluoro(5-fluoropyrimidin-2-yl)methyl)-N-(5-methyl-1H-pyrazol-3-yl)quinazolin-4-amine], the Kd was at most 10 nM at Tyk2, 10 to 100 nM at JAK3 and at most 1 nM on JAK2. Besides, the IC50 in assay [1] was at most 100 nM.

On to `Cc1cc(Nc2nc(C(F)(F)c3ccc(F)cn3)nc3cc(C(N)=O)ccc23)n[nH]1` [Example 41, 2-(difluoro(5-fluoropyridin-2-yl)methyl)-4-((5-methyl-1H-pyrazol-3-yl)amino)quinazoline-7-carboxamide], for which the Kd was at most 10 nM on Tyk2, at most 10 nM on JAK3 and at most 1 nM on JAK2. Moreover, the IC50 in assay [1] is above 500 nM.

Take `Cc1cc(Nc2nc(C(F)(F)c3ccc(F)cn3)nc3c(N4CCOCC4=O)cccc23)n[nH]1` [Example 42, 4-(2-(difluoro(5-fluoropyridin-2-yl)methyl)-4-((5-methyl-1H-pyrazol-3-yl)amino)quinazolin-8-yl)morpholin-3-one]: the Kd on Tyk2 is at most 10 nM; on JAK3, at most 10 nM; on JAK2 it was at most 1 nM. The IC50 in assay [1] is 100 to 500 nM.
